According to the supplement of paper PMC10307832:

Key:
Assay in all cases: relative viability (nuclei count vs DMSO), 5 days (fraction); higher = more cells survive
[1] = tested on: LOU-NH91
Outline: (§1)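 After 5 days of treatment, lung cancer cells in 1536-well plates were fixed and stained in a single step (final 0.05% Triton X-100, 1% formaldehyde, 1 ug/ml Hoechst) and their nuclei counted on 4× images. Treatment had been applied by pin tool the day after seeding as one drug alone or as a fixed anchor-drug dose with five library-drug doses (not always all listed) in √10 steps. Relative viability is the nuclei count of treated wells divided by that of vehicle wells, and values are medians of duplicate plates.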

[2] = tested on: COR-L23
Outline: as §1

[3] = tested on: HCC-78
Outline: as §1

[4] = tested on: UMC-11
Outline: as §1

[5] = tested on: NCI-H2347
Outline: as §1

[6] = tested on: NCI-H1650
Outline: as §1

[7] = tested on: NCI-H1651
Outline: as §1

[8] = tested on: LCLC-103H
Outline: as §1

[9] = tested on: LCLC-97TM1
Outline: as §1

[10] = tested on: NCI-H647
Outline: as §1

[11] = tested on: RERF-LC-KJ
Outline: as §1

[12] = tested on: A-427
Outline: as §1

[13] = tested on: PC-3 [JPC-3]
Outline: as §1

[14] = tested on: NCI-H838
Outline: as §1

[15] = tested on: HARA
Outline: as §1

[16] = tested on: 201T
Outline: as §1

[17] = tested on: NCI-H2405
Outline: as §1

[18] = tested on: NCI-H520
Outline: as §1

[19] = tested on: LXF-289
Outline: as §1

[20] = tested on: NCI-H23
Outline: as §1

In the case of Cc1cn(-c2cc(NC(=O)c3ccc(C)c(Nc4nccc(-c5cccnc5)n4)c3)cc(C(F)(F)F)c2)cn1 [Nilotinib] + CC(C)C[C@H](NC(=O)[C@H](Cc1ccccc1)NC(=O)c1cnccn1)B(O)O [Bortezomib] (partner 0.002 µM), the relative viability ([1]; first compound 0.001 µM) is reported as 0.523, the relative viability ([1]; first compound 0.003162 µM) is reported as 0.46 and the relative viability ([1]; first compound 0.01 µM) is reported as 0.404. The relative viability ([1]; first compound 0.03162 µM) was 0.473, the relative viability ([1]; first compound 0.1 µM) was 0.524 and the relative viability ([2]; first compound 0.001 µM) was 0.726. For the same compound, the relative viability ([2]; first compound 0.003162 µM) was 1.24, the relative viability ([2]; first compound 0.01 µM) was 1.22 and the relative viability ([2]; first compound 0.03162 µM) was 0.858. For the same compound, the relative viability ([2]; first compound 0.1 µM) was 0.907, the relative viability ([3]; first compound 0.001 µM) was 0.433 and the relative viability ([3]; first compound 0.003162 µM) was 0.514. For the same compound, the relative viability ([3]; first compound 0.01 µM) was 0.654, the relative viability ([3]; first compound 0.03162 µM) was 0.55 and the relative viability ([3]; first compound 0.1 µM) was 0.518. It also gave a relative viability ([4]; first compound 0.001 µM) of 0.65, a relative viability ([4]; first compound 0.003162 µM) of 0.658 and a relative viability ([4]; first compound 0.01 µM) of 0.806. The relative viability ([4]; first compound 0.1 µM) was 0.333, the relative viability ([5]; first compound 0.001 µM) was 0.8 and the relative viability ([5]; first compound 0.003162 µM) was 1.08. It also gave a relative viability ([5]; first compound 0.01 µM) of 1.17, a relative viability ([5]; first compound 0.03162 µM) of 0.702 and a relative viability ([5]; first compound 0.1 µM) of 0.865. The relative viability ([6]; first compound 0.001 µM) was 0.2, the relative viability ([6]; first compound 0.003162 µM) was 0.195 and the relative viability ([6]; first compound 0.01 µM) was 0.18. It also gave a relative viability ([6]; first compound 0.03162 µM) of 0.196, a relative viability ([6]; first compound 0.1 µM) of 0.197 and a relative viability ([7]; first compound 0.001 µM) of 0.917. The relative viability ([7]; first compound 0.003162 µM) was 1.05, the relative viability ([7]; first compound 0.01 µM) was 1.07 and the relative viability ([7]; first compound 0.03162 µM) was 0.956. For the same compound, the relative viability ([7]; first compound 0.1 µM) was 0.653, the relative viability ([8]; first compound 0.001 µM) was 1.08 and the relative viability ([8]; first compound 0.003162 µM) was 1.29. It also gave a relative viability ([8]; first compound 0.03162 µM) of 1.15, a relative viability ([8]; first compound 0.1 µM) of 0.909 and a relative viability ([9]; first compound 0.001 µM) of 0.454. It also gave a relative viability ([9]; first compound 0.003162 µM) of 0.158, a relative viability ([9]; first compound 0.01 µM) of 0.946 and a relative viability ([9]; first compound 0.03162 µM) of 0.295. For the same compound, the relative viability ([9]; first compound 0.1 µM) was 0.511, the relative viability ([10]; first compound 0.001 µM) was 0.79 and the relative viability ([10]; first compound 0.003162 µM) was 1.52. The relative viability ([10]; first compound 0.03162 µM) was 0.57, the relative viability ([10]; first compound 0.1 µM) was 0.951 and the relative viability ([11]; first compound 0.001 µM) was 1.12. It also gave a relative viability ([11]; first compound 0.003162 µM) of 1.14, a relative viability ([11]; first compound 0.01 µM) of 1.22 and a relative viability ([11]; first compound 0.03162 µM) of 1.05. The relative viability ([11]; first compound 0.1 µM) was 1.02, the relative viability ([12]; first compound 0.001 µM) was 0.928 and the relative viability ([12]; first compound 0.01 µM) was 0.95. The relative viability ([12]; first compound 0.03162 µM) was 1.02, the relative viability ([12]; first compound 0.1 µM) was 0.536 and the relative viability ([13]; first compound 0.001 µM) was 0.848. For the same compound, the relative viability ([13]; first compound 0.003162 µM) was 0.88, the relative viability ([13]; first compound 0.01 µM) was 0.975 and the relative viability ([13]; first compound 0.03162 µM) was 0.707. It also gave a relative viability ([13]; first compound 0.1 µM) of 0.46, a relative viability ([14]; first compound 0.001 µM) of 0.867 and a relative viability ([14]; first compound 0.003162 µM) of 0.731. For the same compound, the relative viability ([14]; first compound 0.01 µM) was 0.976, the relative viability ([14]; first compound 0.03162 µM) was 0.673 and the relative viability ([14]; first compound 0.1 µM) was 0.709. The relative viability ([15]; first compound 0.001 µM) was 1.17, the relative viability ([15]; first compound 0.003162 µM) was 1.25 and the relative viability ([15]; first compound 0.01 µM) was 1.11. It also gave a relative viability ([15]; first compound 0.03162 µM) of 1.15, a relative viability ([15]; first compound 0.1 µM) of 0.859 and a relative viability ([16]; first compound 0.001 µM) of 1.12. For the same compound, the relative viability ([16]; first compound 0.003162 µM) was 1.09, the relative viability ([16]; first compound 0.01 µM) was 1.08 and the relative viability ([16]; first compound 0.1 µM) was 1.11. The relative viability ([17]; first compound 0.001 µM) was 0.995, the relative viability ([17]; first compound 0.01 µM) was 1.07 and the relative viability ([17]; first compound 0.03162 µM) was 0.762. For the same compound, the relative viability ([17]; first compound 0.1 µM) was 0.553, the relative viability ([18]; first compound 0.001 µM) was 0.591 and the relative viability ([18]; first compound 0.01 µM) was 0.776. It also gave a relative viability ([18]; first compound 0.03162 µM) of 0.526, a relative viability ([18]; first compound 0.1 µM) of 0.34 and a relative viability ([19]; first compound 0.001 µM) of 0.977. For the same compound, the relative viability ([19]; first compound 0.003162 µM) was 1.22, the relative viability ([19]; first compound 0.01 µM) was 1.11 and the relative viability ([19]; first compound 0.03162 µM) was 0.977. It also gave a relative viability ([19]; first compound 0.1 µM) of 0.692, a relative viability ([20]; first compound 0.001 µM) of 1.07 and a relative viability ([20]; first compound 0.003162 µM) of 1.37. It also gave a relative viability ([20]; first compound 0.01 µM) of 1.4, a relative viability ([20]; first compound 0.03162 µM) of 0.73 and a relative viability ([20]; first compound 0.1 µM) of 0.775.
CN1CCN(CCOc2cc(OC3CCOCC3)c3c(Nc4c(Cl)ccc5c4OCO5)ncnc3c2)CC1 [Saracatinib] + CC(C)C[C@H](NC(=O)[C@H](Cc1ccccc1)NC(=O)c1cnccn1)B(O)O [Bortezomib] (partner 0.002 µM) showed a relative viability ([1]; first compound 0.02 µM) of 0.538, a relative viability ([1]; first compound 0.2 µM) of 0.457 and a relative viability ([1]; first compound 0.6325 µM) of 0.521. The relative viability ([1]; first compound 2 µM) was 0.533, the relative viability ([2]; first compound 0.02 µM) was 0.98 and the relative viability ([2]; first compound 0.2 µM) was 0.723. For the same compound, the relative viability ([2]; first compound 0.6325 µM) was 1.09, the relative viability ([2]; first compound 2 µM) was 1.05 and the relative viability ([3]; first compound 0.02 µM) was 0.505. It also gave a relative viability ([3]; first compound 0.2 µM) of 0.513, a relative viability ([3]; first compound 0.6325 µM) of 0.583 and a relative viability ([3]; first compound 2 µM) of 0.357. It also gave a relative viability ([4]; first compound 0.02 µM) of 0.667, a relative viability ([4]; first compound 0.6325 µM) of 0.64 and a relative viability ([4]; first compound 2 µM) of 0.494. The relative viability ([5]; first compound 0.02 µM) was 1.01, the relative viability ([5]; first compound 0.2 µM) was 0.921 and the relative viability ([5]; first compound 0.6325 µM) was 1.2. It also gave a relative viability ([5]; first compound 2 µM) of 0.893, a relative viability ([6]; first compound 0.02 µM) of 0.179 and a relative viability ([6]; first compound 0.2 µM) of 0.192. The relative viability ([6]; first compound 0.6325 µM) was 0.24, the relative viability ([6]; first compound 2 µM) was 0.206 and the relative viability ([7]; first compound 0.02 µM) was 0.962. The relative viability ([7]; first compound 0.2 µM) was 0.775, the relative viability ([7]; first compound 0.6325 µM) was 1 and the relative viability ([7]; first compound 2 µM) was 0.844. It also gave a relative viability ([8]; first compound 0.02 µM) of 1.21, a relative viability ([8]; first compound 0.2 µM) of 0.963 and a relative viability ([8]; first compound 0.6325 µM) of 1.09. The relative viability ([8]; first compound 2 µM) was 0.941, the relative viability ([9]; first compound 0.02 µM) was 0.786 and the relative viability ([9]; first compound 0.6325 µM) was 0.995. For the same compound, the relative viability ([9]; first compound 2 µM) was 0.523, the relative viability ([10]; first compound 0.02 µM) was 0.993 and the relative viability ([10]; first compound 0.2 µM) was 0.677. It also gave a relative viability ([10]; first compound 0.6325 µM) of 0.757, a relative viability ([10]; first compound 2 µM) of 0.641 and a relative viability ([11]; first compound 0.02 µM) of 1.09. It also gave a relative viability ([11]; first compound 0.2 µM) of 1.23, a relative viability ([11]; first compound 0.6325 µM) of 0.993 and a relative viability ([11]; first compound 2 µM) of 0.942. It also gave a relative viability ([12]; first compound 0.02 µM) of 1.03, a relative viability ([12]; first compound 0.2 µM) of 0.804 and a relative viability ([12]; first compound 0.6325 µM) of 0.871. The relative viability ([12]; first compound 2 µM) was 0.981, the relative viability ([13]; first compound 0.02 µM) was 0.905 and the relative viability ([13]; first compound 0.2 µM) was 0.721. For the same compound, the relative viability ([13]; first compound 0.6325 µM) was 0.778, the relative viability ([13]; first compound 2 µM) was 0.486 and the relative viability ([14]; first compound 0.02 µM) was 0.78. It also gave a relative viability ([14]; first compound 0.2 µM) of 0.702, a relative viability ([14]; first compound 0.6325 µM) of 0.482 and a relative viability ([14]; first compound 2 µM) of 0.431. For the same compound, the relative viability ([15]; first compound 0.02 µM) was 1.12, the relative viability ([15]; first compound 0.6325 µM) was 1.08 and the relative viability ([15]; first compound 2 µM) was 0.602. It also gave a relative viability ([16]; first compound 0.02 µM) of 1.07, a relative viability ([16]; first compound 0.2 µM) of 1 and a relative viability ([16]; first compound 0.6325 µM) of 1.04. The relative viability ([16]; first compound 2 µM) was 0.848, the relative viability ([17]; first compound 0.02 µM) was 1.03 and the relative viability ([17]; first compound 0.2 µM) was 0.749. It also gave a relative viability ([17]; first compound 0.6325 µM) of 0.736, a relative viability ([17]; first compound 2 µM) of 0.716 and a relative viability ([18]; first compound 0.02 µM) of 0.663. The relative viability ([18]; first compound 0.2 µM) was 0.431, the relative viability ([18]; first compound 0.6325 µM) was 0.289 and the relative viability ([18]; first compound 2 µM) was 0.174. The relative viability ([19]; first compound 0.02 µM) was 0.937, the relative viability ([19]; first compound 0.2 µM) was 0.959 and the relative viability ([19]; first compound 0.6325 µM) was 0.966. The relative viability ([19]; first compound 2 µM) was 0.987, the relative viability ([20]; first compound 0.02 µM) was 1.09 and the relative viability ([20]; first compound 0.6325 µM) was 0.95. The relative viability ([20]; first compound 2 µM) was 1.12.
